Test results reported in patent publication US20050170391A1, “TAUT1 transporters expressed in blood brain barrier cells” (Xenoport, Inc., priority 2004, published 2005).
Values joined by “and” are separate entries in the source; they are usually repeats but may differ in a detail not shown here. Identical values can stand only once.

How the values were obtained:
[1] = target: PgP (Homo sapiens, UniProt P08183); assay: Cellular transwell monolayer efflux assay, MDCK cells with TREx-PgP
Description: A third type of efflux transporter assay is the cellular transwell monolayer efflux assay. In this assay, cells expressing efflux transporters, such as MDCK cells containing the TREx-PgP expression vector (Invitrogen Inc., Carlsbad, Calif.), are seeded and grown in transwell dishes on filter membranes made of substances such as polycarbonate. The cells form a polarized monolayer. The transwell dishes have apical and basolateral chambers that are separated by the filter membrane on which the polarized monolayer is situated. Assays are performed by placing a test compound in either the apical or basolateral chamber, followed by sampling the opposite chamber after a predetermined period of time such as 60-120 minutes and measuring the amount of the test compound. The test compound can be measured by methods such as radiolabel detection or LC-MS-MS analysis. Assays are performed in the presence and absence of an efflux transporter inhibitor or competitor. Efflux transporter inhibitors or competitors increase apical to basolateral transport and decrease basolateral to apical transport of compounds that are efflux transporter substrates. Apparent permeability (Papp) of test compounds is measured. […] Test compounds that generate ratios between 1.5 and 2.0 require additional testing to determine if they are efflux transporter substrates. An agent, conjugate, or conjugate moiety that is a TAUT1 substrate and also generates a ratio of greater than 2.0 can be modified.
MDCK cells transfected with the tetracycline-inducible TREx-PgP expression vector were seeded on polycarbonate filter membranes in transwell dishes and grown for 3-5 days, yielding a polarized monolayer with tight junctions between cells. […] The left set of bars depicts apical to basolateral transport, while the right set of bars depicts basolateral to apical transport.

[2] = target: T1, TAUT1 (Homo sapiens, UniProt P31641); assay: hTAUT1 competition uptake assay in HEK-TREx-TAUT1 cells; format: cell-based; set-up: expressed in transfected cells; host or cells: HEK-TREx cells (HEK-TREx-TAUT1 inducible line)
T1 sequence (P31641 1-620): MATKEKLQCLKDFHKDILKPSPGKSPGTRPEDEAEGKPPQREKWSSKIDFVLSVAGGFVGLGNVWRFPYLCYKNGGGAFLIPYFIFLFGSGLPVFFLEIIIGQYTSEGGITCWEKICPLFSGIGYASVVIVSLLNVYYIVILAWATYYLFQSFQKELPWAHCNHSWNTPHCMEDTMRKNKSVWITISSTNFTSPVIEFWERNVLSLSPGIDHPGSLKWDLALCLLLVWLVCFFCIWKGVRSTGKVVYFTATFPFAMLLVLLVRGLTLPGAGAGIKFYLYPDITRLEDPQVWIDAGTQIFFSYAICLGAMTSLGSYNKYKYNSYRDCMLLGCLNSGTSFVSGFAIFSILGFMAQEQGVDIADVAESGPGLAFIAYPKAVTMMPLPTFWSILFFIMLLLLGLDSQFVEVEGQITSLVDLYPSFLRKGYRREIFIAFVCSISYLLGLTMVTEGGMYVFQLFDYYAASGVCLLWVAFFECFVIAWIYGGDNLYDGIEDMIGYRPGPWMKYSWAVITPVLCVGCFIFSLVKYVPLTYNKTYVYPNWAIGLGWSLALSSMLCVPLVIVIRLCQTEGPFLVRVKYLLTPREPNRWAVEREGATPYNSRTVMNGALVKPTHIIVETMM
Description: A modified competition uptake assay was developed to determine the ability of a test compound(s) to inhibit the uptake of radiolabeled substrates into HEK-TREx-TAUT1 cells induced to over-express hTAUT. The results are stated as affinities (IC50).
The competition uptake assay were prepared as follows: Compounds were prepared for assay by diluting a 100 mM stock concentration (in DMSO) to the appropriate working concentration. Typically, seven-point dose response curves were prepared starting at a final assay concentration of 1 mM and carrying out three-fold dilutions. These dilutions were prepared by making a working “compound” plate that contained a 2× solution of the desired starting concentration of each test compound in duplicate in row A of a v-bottom microtiter plate. Six 3-fold serial dilutions (from row B to G) were made into the HBSS assay buffer (9.8 g/L Hank's Balance Salts (Sigma; H-1387), 2.6 g/L HEPES (10 mM) (Sigma; H-3375), 0.35 g/L NaHCO3 (4.2 mM) (Sigma; S-6297), pH to 7.4 with 5N NaOH) (with the appropriate amount of DMSO so that the DMSO concentration remains constant at all dilutions). The resulting “compound” plate contained serial dilutions of six compounds in duplicate.
^3H-GABA was diluted into HBSS buffer to a final concentration of 4,000 cpm/μl. Enough solution was prepared to allow addition of 25 μl/well (the final concentration was 100,000 cpm/well).
HEK-TREx-hTAUT cells, plated in 96-well plates and treated with tetracycline (or tet analog (e.g., doxycycline), were removed from the incubator. Growth media was removed from the cells, and the cells were washed twice in room temperature HBSS (100 μl/well/wash) using a 96-well plate washer (Bio Tek ELX405). Alternatively, cells were washed manually with equivalent volumes using a multichannel pipettor. Immediately before beginning the assay, the final 100 μl wash solution was removed from the cells by aspiration.
Using a 96-well pipettor, 25 μl from the “compound” plate was added to each well of the cell plate. The assay was started by adding 25 μl of the ^3H-GABA working solution. The plate was incubated at room temperature for 15 minutes. The assay was stopped by washing the cells four times with ice-cold HBSS buffer using a ELX 405 plate washer (100 μl buffer/well/wash) having an angled buffer dispenser.
Scintillation fluid (200 μl) (Optiphase Supermix (Perkin Elmer) was added to each well, and the plate was covered with a 96-well adhesive plate cover and placed on a shaker for 10 minutes. The plates were counted on a 96-well plate scintillation counter for 60 sec/well. The data were analyzed using a sigmoidal dose response curve-fitting program ((Prism, GraphPad, Inc, San Diego, Calif.; equation: one-site competition).
FIG. 7 depicts the results of a competition experiment using HEK-TREx-TAUT1 cells. ^3H-taurine was used as the substrate and unlabeled taurine was used as the competitor. The competition experiment was performed as described in Example 7. Non-specific uptake was determined by measuring the uptake into cells not induced to express the transporter (“no tet”). […] In control cells, uptake of labeled taurine remained at background levels and was largely unaffected by an excess of unlabeled taurine.
These four compounds, IAA, R,S-Baclofen, GPA, and GABA, were tested in both competition and direct uptake assays. One notable difference in the competition assay format compared to the literature is that ^3H-GABA was used, rather than ^3H-taurine, as the radiolabel. […] Therefore, to develop a competition assay that is as sensitive as possible, ^3H-GABA, a substrate with a much […] affinity, was used.

[3] = target: T1, TAUT1; assay: ^3H-taurine uptake by Xenopus oocytes injected with TAUT1 cRNA; format: cell-based; set-up: expressed in transfected cells; host or cells: Xenopus oocytes injected with TAUT1 cRNA; details: oocytes expressing TAUT1 vs noninjected controls (FIG. 2)
[4] = target: T1, TAUT1; details: reported value, source not given; cited from earlier work
[5] = substrate: NCCCC(=O)O; assay: cells, lysate or membranes; details: other: direct uptake into HEK-TREx-TAUT1 cells, +TET minus no TET; 15 min, room temperature
[6] = 2.5 nM ^3H-vinblastine, in the presence of 250 μM verapamil vs absence (FIG. 6)

Chain of PgP (P08183 whole entry): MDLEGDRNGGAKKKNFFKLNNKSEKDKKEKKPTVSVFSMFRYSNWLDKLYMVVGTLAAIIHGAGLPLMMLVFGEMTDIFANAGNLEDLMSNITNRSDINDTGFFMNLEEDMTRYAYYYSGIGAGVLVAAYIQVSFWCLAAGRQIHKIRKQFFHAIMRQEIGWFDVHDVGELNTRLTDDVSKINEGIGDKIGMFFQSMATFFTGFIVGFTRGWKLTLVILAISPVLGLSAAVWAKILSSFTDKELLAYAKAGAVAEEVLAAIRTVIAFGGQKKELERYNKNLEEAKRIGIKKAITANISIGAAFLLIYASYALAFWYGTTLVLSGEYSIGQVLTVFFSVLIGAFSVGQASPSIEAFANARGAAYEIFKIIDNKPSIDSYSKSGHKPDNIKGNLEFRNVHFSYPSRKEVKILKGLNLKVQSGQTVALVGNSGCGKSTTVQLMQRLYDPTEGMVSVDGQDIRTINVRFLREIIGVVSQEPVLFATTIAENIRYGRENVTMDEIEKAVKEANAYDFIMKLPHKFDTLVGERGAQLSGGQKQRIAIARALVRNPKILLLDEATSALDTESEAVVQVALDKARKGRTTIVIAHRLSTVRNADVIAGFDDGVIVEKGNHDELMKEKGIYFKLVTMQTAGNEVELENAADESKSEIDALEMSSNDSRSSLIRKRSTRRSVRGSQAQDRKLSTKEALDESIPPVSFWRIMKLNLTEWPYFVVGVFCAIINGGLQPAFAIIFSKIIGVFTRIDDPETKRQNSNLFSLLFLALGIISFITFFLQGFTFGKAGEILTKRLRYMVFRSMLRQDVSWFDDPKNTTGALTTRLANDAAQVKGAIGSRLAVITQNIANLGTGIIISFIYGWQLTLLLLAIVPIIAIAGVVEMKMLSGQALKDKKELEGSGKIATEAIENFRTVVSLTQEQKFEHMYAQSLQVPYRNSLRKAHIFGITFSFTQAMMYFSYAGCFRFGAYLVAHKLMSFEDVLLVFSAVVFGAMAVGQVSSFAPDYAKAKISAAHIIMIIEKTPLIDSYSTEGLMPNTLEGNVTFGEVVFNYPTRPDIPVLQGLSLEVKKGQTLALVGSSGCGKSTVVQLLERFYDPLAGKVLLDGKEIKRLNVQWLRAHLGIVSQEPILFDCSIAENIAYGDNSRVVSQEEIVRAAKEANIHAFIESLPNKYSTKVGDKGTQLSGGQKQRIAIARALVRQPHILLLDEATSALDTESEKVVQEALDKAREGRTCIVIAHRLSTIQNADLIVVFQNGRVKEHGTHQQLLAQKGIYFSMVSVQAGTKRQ

Molecule: CC[C@]1(O)C[C@@H]2CN(CCc3c([nH]c4ccccc34)[C@@](C(=O)OC)(c3cc4c(cc3OC)N(C)[C@H]3[C@@](O)(C(=O)OC)[C@H](OC(C)=O)[C@]5(CC)C=CCN6CC[C@]43[C@@H]65)C2)C1 [^3H-vinblastine]
- Apical to basolateral transport [1, 6]: strongly increased
- basolateral to apical transport [1, 6]: strongly decreased
- PgP substrate status ([1]; conclusion from transwell transport with and without verapamil): substrate of PgP

Molecule: NCCS(=O)(=O)O [Taurine]
- IC50 ([2]; HEK-TREx-TAUT1 cells induced with tetracycline, ^3H-GABA radiolabel (taurine: ^3H-taurine per Example 9), 15 min, room temperature): 10 µM
- radiolabel uptake ([2]; ^3H-taurine as radiolabel in HEK-TREx-TAUT1 cells, in a very short time): > 25 % of the input cpm
- uptake of labeled taurine with increasing unlabeled taurine ([2]; ^3H-taurine substrate, unlabeled taurine competitor, cells induced to express TAUT1 (FIG. 7)): the uptake of labeled taurine decreased as the concentration of unlabeled taurine increased
- ^3H-taurine uptake [3]: higher levels of ^3H-taurine uptake than noninjected controls
- Reported Affinity for TAUT1 [4]: 0.1 mM

B1: hTAUT1 (Homo sapiens) (protein)
chain: MATKEKLQCLKDFHKDILKPSPGKSPGTRPEDEAEGKPPQREKWSSKIDFVLSVAGGFVGLGNVWRFPYLCYKNGGGAFLIPYFIFLFGSGLPVFFLEIIIGQYTSEGGITCWEKICPLFSGIGYASVVIVSLLNVYYIVILAWATYYLFQSFQKELPWAHCNHSWNTPHCMEDTMRKNKSVWITISSTNFTSPVIEFWERNVLSLSPGIDHPGSLKWDLALCLLLVWLVCFFCIWKGVRSTGKVVYFTATFPFAMLLVLLVRGLTLPGAGAGIKFYLYPDITRLEDPQVWIDAGTQIFFSYAICLGAMTSLGSYNKYKYNSYRDCMLLGCLNSGTSFVSGFAIFSILGFMAQEQGVDIADVAESGPGLAFIAYPKAVTMMPLPTFWSILFFIMLLLLGLDSQFVEVEGQITSLVDLYPSFLRKGYRREIFIAFVCSISYLLGLTMVTEGGMYVFQLFDYYAASGVCLLWVAFFECFVIAWIYGGDNLYDGIEDMIGYRPGPWMKYSWAVITPVLCVGCFIFSLVKYVPLTYNKTYVYPNWAIGLGWSLALSSMLCVPLVIVIRLCQTEGPFLVRVKYLLTPREPNRWAVEREGATPYNSRTVMNGALVKPTHIIVETMM
- Km [5]: 270 µM and 200 µM
